Source: PubChem BioAssay (NCI)
Values joined by “and” are separate entries in the source; they are usually repeats but may differ in a detail not shown here. Equal values may be shown once.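 How tested: cells in 96-well plates exposed to compound for 48 hours at five concentrations. The concentration for 50% growth inhibition is given as GI50. TGI marks complete inhibition of growth.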

What was measured:
Assay in all cases: DTP human tumour cell line panel, 48 h
[1] = tested on: A549 NSCLC
[2] = tested on: A498 renal
[3] = tested on: RXF 393 renal
[4] = tested on: UACC-62 melanoma
[5] = tested on: NCI/ADR-RES ovarian
[6] = tested on: HT29 colon
[7] = tested on: MOLT-4 leukemia
[8] = tested on: ACHN renal
[9] = tested on: MALME-3M melanoma
[10] = tested on: SK-MEL-28 melanoma

Row | SMILES | GI50 [1] | TGI [1] | GI50 [2] | TGI [2] | GI50 [3] | TGI [3] | GI50 [4] | TGI [4] | GI50 [5] | TGI [5] | GI50 [6] | TGI [6] | GI50 [7] | TGI [7] | GI50 [8] | TGI [8] | GI50 [9] | TGI [9] | GI50 [10] | TGI [10]
1 | COc1ccc(C(=O)/C=C/c2ccc(OCc3cccc(C(F)(F)F)c3)c(OC)c2)cc1OC | 67.7 µM | > 1000 µM | 207 µM | > 1000 µM | 68.3 µM | 562 µM | 52.2 µM | > 1000 µM | 42.1 µM | > 1000 µM | 52.1 µM | > 1000 µM | 27.7 µM | > 1000 µM | 52.8 µM | > 1000 µM | 271 µM | > 1000 µM | 262 µM | > 1000 µM
2 | Cc1ccc(NC(=O)COc2ccc(Cl)cc2)cc1Cl |  | > 100 µM |  | > 100 µM |  | > 100 µM |  | > 100 µM |  | > 100 µM |  | > 100 µM |  | > 100 µM |  | > 100 µM |  | > 100 µM |  | > 100 µM
3 | O=C1OC(OC/C(Br)=C(\Br)COC2OC(=O)C(Cl)=C2Cl)C(Cl)=C1Cl (stereo not given) |  | 34.3 µM |  | 34.1 µM |  | 6.1 µM |  | 16.9 µM |  | 25.2 µM |  | 9.77 µM |  | 2.38 µM |  | 13.7 µM |  | 9.02 µM |  | 22.1 µM
4 | Cc1c(C(=O)Nc2ccc(N3C[C@@H](C)O[C@@H](C)C3)nc2)cccc1-c1ccc(OC(F)(F)F)cc1 | 4.91 µM and 6.91 µM | 22.1 µM and 32.1 µM | 3.77 µM and 2.04 µM | 14 µM and 9.97 µM | 12.3 µM and 13.7 µM | 29.2 µM and 32.1 µM | 9.08 µM and 12.7 µM | 27.6 µM and 35.7 µM | 5.69 µM and 13.5 µM | 26.6 µM and 42.1 µM | 11.9 µM and 15.1 µM | 41.7 µM and 64.4 µM | 7.59 µM and 8.47 µM | > 100 µM | 5.6 µM and 14.4 µM | 23.3 µM and 44.1 µM | 12.1 µM and 13.3 µM | 46.2 µM and 46 µM | 12.9 µM and 16.8 µM | 33.6 µM and 40.1 µM
5 | CC1=C(CCC(C)CO)O[C@H]2C[C@H]3[C@@H]4CC[C@H]5C[C@@H](O)CC[C@]5(C)[C@H]4CC(=O)[C@]3(C)[C@@H]12 (stereo not given in full) |  | 55.7 µM |  | 44 µM |  | 73.8 µM |  | 18.1 µM |  | 40.6 µM |  | 71.8 µM |  | 19.2 µM |  | > 69.7 µM |  | 57.1 µM |  | > 78.5 µM
6 | C=C1C(=O)O[C@@H]2/C=C(/C)[C@@H](OC(C)=O)C[C@@H](O)/C(C)=C\[C@@H](OC(=O)[C@]3(C)O[C@@H]3C)[C@@H]12 |  | > 100 µM |  | 32.3 µM |  | 29.3 µM |  | 31.9 µM |  | > 100 µM |  | 30.7 µM |  | 20.7 µM |  | 26.8 µM |  | 11.6 µM |  | 23.2 µM
7 | CCN1CCN(c2ccc(NC(=O)Nc3nc4ccc(-c5ccccc5OC)cc4s3)cc2)CC1 | 1.98 µM | 3.59 µM | 1.8 µM | 3.61 µM | 1.7 µM | 3.3 µM | 1.87 µM | 3.45 µM | 1.72 µM | 3.35 µM | 1.31 µM | 2.7 µM | 1.8 µM | 3.67 µM | 1.74 µM | 3.11 µM | 1.71 µM | 3.34 µM | 1.76 µM | 3.26 µM
8 | CN(C(=O)C(C)(C)C)c1ccccc1I(=O)=O | > 100 µM | > 100 µM | > 100 µM | > 100 µM | > 100 µM | > 100 µM | > 100 µM | > 100 µM | > 100 µM | > 100 µM | > 100 µM | > 100 µM | 3.45 µM | > 100 µM | > 100 µM | > 100 µM | 27.4 µM | > 100 µM | 92.5 µM | > 100 µM
9 | CN1CCN(Cc2ccc(NC(=O)c3cncc(C#Cc4ccc(N)nc4)c3)cc2C(F)(F)F)CC1 | 1.38 µM | 7.24 µM | 0.567 µM | 1.93 µM | 0.524 µM | 2.14 µM | 0.945 µM | 3.48 µM | 1.9 µM | 10.3 µM | 0.728 µM | 4.59 µM | 1.03 µM | 6.82 µM | 0.461 µM | 4.4 µM | 0.535 µM | 1.46 µM | 1.47 µM | 5.54 µM
10 | CC1(C)OCC2OC(n3cnc4c(N)nc(Cl)nc43)C(OS(C)(=O)=O)C2O1 (stereo not given) |  | > 100 µM |  | > 100 µM |  | > 100 µM |  | > 100 µM |  | > 100 µM |  | > 100 µM |  | > 100 µM |  | > 100 µM |  | > 100 µM |  | > 100 µM
11 | CCC(=O)OCOc1ccc(/C=C2\CCC(CN(C)C)C2=O)cc1 (stereo not given) |  | 40.3 µM |  | 30.6 µM |  | 9.55 µM |  | 13.6 µM |  | 6.78 µM |  | 25.7 µM |  | 8.07 µM |  | 20.4 µM |  | 10.6 µM |  | 9.73 µM
12 | COc1c(C(N)=O)cc(-c2ccc(Cl)cc2)cc1-c1ccc(S(N)(=O)=O)cc1 | 8.33 µM | > 25 µM | 9.03 µM | > 23.3 µM | 7.88 µM | > 25 µM | 12.8 µM | > 25 µM | > 17.5 µM | > 25 µM | 11 µM | > 25 µM | 8.96 µM | > 20.7 µM | 10.1 µM | > 25 µM | 12.7 µM | > 25 µM | 16.9 µM | > 25 µM
13 | COc1cc2[nH]c3c(c2cc1OC)CCN[C@@]31CC[C@@]2(CC3c4c(cc(OC)c(O)c42)CCN3C)C[C@@H]1OC (stereo not given in full) |  | > 100 µM |  | > 96.9 µM |  | 77.9 µM |  | 45.3 µM |  | > 85.1 µM |  | > 91.2 µM |  | > 56.2 µM |  | > 100 µM |  | 33.8 µM |  | 33.5 µM
14 | O=C1C2=C(C(=O)c3ccccc31)C(O)(S(=O)(=O)O)C(O)(S(=O)(=O)O)C1N=CC=CC21 (stereo not given) | 4.75 µM and 4.09 µM | 37.1 µM and 16.1 µM | 10.1 µM and 3.3 µM | 40.1 µM and 12.7 µM | 5.73 µM and 2.98 µM | 28.6 µM and 11.9 µM | 6.17 µM and 4.52 µM | 19.4 µM and 18.7 µM | 2.45 µM and 1.27 µM | 18.6 µM and 23.7 µM | 5.84 µM and 4.51 µM | > 100 µM and 20.8 µM | 7.06 µM and 4.38 µM | > 100 µM and 34.4 µM | 4.47 µM and 3.83 µM | 39.2 µM and 19.3 µM | 10.3 µM and 14.8 µM | 36.7 µM and 39 µM | 17 µM and 12.1 µM | 96.1 µM and 28.6 µM
15 | CC(C)(C)NCC(O)c1ccccc1Cl (stereo not given) | > 100 µM | > 100 µM | > 100 µM | > 100 µM | > 100 µM | > 100 µM | > 100 µM | > 100 µM | > 100 µM | > 100 µM | > 100 µM | > 100 µM | > 100 µM | > 100 µM | > 100 µM | > 100 µM | > 100 µM | > 100 µM | > 100 µM | > 100 µM
16 | CC12CCC(C1)C(C)(C)C2OC(=O)c1ccccc1N (stereo not given) |  | 29.2 µM |  | 28.6 µM |  | 25.7 µM |  | 29.2 µM |  | 31.7 µM |  | 29.1 µM |  | 25.1 µM |  | 33 µM |  | 29.8 µM |  | 31.9 µM
